Measured values taken from ChEMBL document CHEMBL3217490, “An approach to enzyme inhibition employing reversible boronate ester formation” (Medchemcomm, 2011).
Active and inactive are the calls of the source. The calls are words filed in the database; no cut-off is given here.

Key:
[1] = Dissociation constant, pKa of the compound; assay type: physicochemical
Homo sapiens [2] = organism: Homo sapiens; assay: Binding affinity to alpha-chymotrypsin (unknown origin) at 1 mM at pH 5.8 by 11B-NMR analysis
Homo sapiens [3] = organism: Homo sapiens; assay: Binding affinity to alpha-chymotrypsin (unknown origin) at 1 mM at pH 5.8 by 11B-NMR analysis in presence of L-sorbose
Homo sapiens [4] = organism: Homo sapiens; assay: Inhibition of alpha-chymotrypsin (unknown origin) using succinyl-Ala-Ala-Pro-Phe-para-nitroanilide as substrate assessed as residual activity at 25 uM after 10 mins in presence of L-glucose relative to control
[5] = Inhibition of alpha-chymotrypsin (unknown origin); parameters: species or system Homo sapiens
Homo sapiens [6] = organism: Homo sapiens; assay: Binding affinity to alpha-chymotrypsin (unknown origin) at 5 mM by [1H] waterLOGSY NMR analysis in presence of D-fructose
Homo sapiens [7] = organism: Homo sapiens; assay: Binding affinity to alpha-chymotrypsin (unknown origin) at 1 mM at pH 5.8 by 11B-NMR analysis in presence of D-sorbose
Homo sapiens [8] = organism: Homo sapiens; assay: Binding affinity to alpha-chymotrypsin (unknown origin) at 1 mM at pH 5.8 by 11B-NMR analysis in presence of L-fructose
Homo sapiens [9] = organism: Homo sapiens; assay: Binding affinity to alpha-chymotrypsin (unknown origin) at 5 mM by [1H] waterLOGSY NMR analysis in presence of L-fructose
Homo sapiens [10] = organism: Homo sapiens; assay: Inhibition of alpha-chymotrypsin (unknown origin) using succinyl-Ala-Ala-Pro-Phe-para-nitroanilide as substrate assessed as residual activity at 25 uM after 10 mins in presence of D-glucose relative to control
Homo sapiens [11] = organism: Homo sapiens; assay: Inhibition of alpha-chymotrypsin (unknown origin) using succinyl-Ala-Ala-Pro-Phe-para-nitroanilide as substrate assessed as residual activity at 25 uM after 10 mins in presence of D-fructose relative to control
Homo sapiens [12] = organism: Homo sapiens; assay: Binding affinity to alpha-chymotrypsin (unknown origin) at 1 mM at pH 5.8 by 11B-NMR analysis in presence of D-fructose
Homo sapiens [13] = organism: Homo sapiens; assay: Inhibition of alpha-chymotrypsin (unknown origin) using succinyl-Ala-Ala-Pro-Phe-para-nitroanilide as substrate assessed as residual activity at 25 uM after 10 mins in presence of L-fructose relative to control
[14] = Inhibition of Escherichia coli beta-lactamase AmpC

SMILES	pKa [1]	IC50 [5] [µM]	Activity (Homo sapiens [6])	Activity (Homo sapiens [9])	Activity (Homo sapiens [12])	further results
OB(O)c1ccc2ccccc2c1	8.88	–	–	–	–	–
CCB(O)O	10	–	–	–	–	–
OB(O)O [BORIC ACID]	10	–	–	–	–	–

Now from value to compound, other results behind:

pKa [1]	IC50 [5] [µM]	Activity (Homo sapiens [6])	Activity (Homo sapiens [9])	Activity (Homo sapiens [12])	SMILES	further results
10	–	–	–	–	OB(O)c1ccc(O)cc1	–
7.44	5	Active	inactive	Active	OB(O)c1cc2ccccc2s1	Activity (Homo sapiens [2]): Active; Activity (Homo sapiens [3]): Active; Activity (Homo sapiens [4]): 94%; Activity (Homo sapiens [7]): Active; Activity (Homo sapiens [8]): Active; Activity (Homo sapiens [10]): 97%; Activity (Homo sapiens [11]): 78%; Activity (Homo sapiens [13]): 97%
7.3	14	Active	inactive	Active	OB(O)c1cc2ccccc2o1	IC50 [14]: 220 nM
